# Source: ChEMBL document CHEMBL6083206, “SLL-1A-16 suppresses proliferation and induces autophagy in non-small-cell lung cancer cells via the AKT/mTOR signaling pathway” (RSC Med Chem, 2024)
# Experiment: Toxicity in Balb/c nude mouse xenografted with human A549 cells assessed as reduction in body weight at 25 mg/kg, ip administered for 14 days
# Assay type: organism-based
# Conditions: in vivo, 336 h, time 14 day
structure (smiles),measurement,value
Cl.Nc1ccn([C@@H]2O[C@H](CO)[C@@H](O)C2(F)F)c(=O)n1 [GEMCITABINE HYDROCHLORIDE],Activity,Toxic
